Measured values as given in US5153318A, “3'-Azido nucleoside compound” (Burroughs Wellcome Co., priority 1989, dated 1992).

Assays:
[1] = test system: HIV-1 (strain 3B); experiment: Anti-HIV-1 activity, reversal of cytopathic effect in MT4 cells (propidium iodide dye uptake); assay type: cell-based; conditions: Human immunodeficiency virus 1, MT4, 120 h, 100XTCID50, five days, protection of 50% of the cells from cell killing
Procedure: i) Anti-HIV activity was determined by measuring the ability of the compound to reverse the cytopathic effect of HIV infection. This was determined by a quantitative assessment of cell growth monitored at the fifth day post infection by a propidium iodide dye uptake test. MT4 cells were incubated with 100XTCID50 of HIV-1 (strain 3B) or HIV-2 (Zagury strain) for one hour prior to addition of compound in six different concentrations varying from 2 to 200 μM. The cells were allowed to incubate for five days at 37° C. On day five, NP-40, a detergent, was added to a final concentration of 0.5% immediately prior to analysis. Cell number was determined using a method which measures the fluorescence of a dye (propidium iodide) which binds to DNA. Since the amount of DNA is directly proportional to cell number, this fluorescence assay is an indication of cell growth. While uninfected cells double in cell number several times during the five days duration of the assay. HIV-infected cells grow very little, if at all.

[2] = test system: human hepatitis B virus; experiment: Anti-HBV activity in human HBV producer cell line of HepG2, 2.2.15; assay type: cell-based; conditions: HepG2 2.2.15 cells, ten days; criterion at least 100-fold reduction of Dane particles and similar decrease of intracellular replicative intermediates
Procedure: ii) The human HBV producer cell line of HepG2, 2.2.15, described and characterized by Sells et al., PNAS 84:1005, 1987 and J. Virol. […] This cell line was utilized in vitro to identify compounds with anti-HBV activity.
To test compounds for antiviral activity, monolayer cultures were treated with compound. […], for ten days. Supernatant media containing extracellular virion DNA (Dane particles) were harvested on days three, six and ten, treated with proteinase K (1 mg/mL) and sodium dodecyl sulfate (1%), and incubated at 50° C. for one hour. DNA was extracted with equal volumes of phenol followed by chloroform and then precipitated by ammonium acetate and propanol. […] After precipitation by ammonium acetate and propanol, the intracellular DNA precipitate was dissolved, cut by restriction endonuclease, Hind III, applied to agarose gel and then treated as described by Southern to determine the quantity of replicative intermediate forms. The antiviral effect of the drug was determined by measuring at least a 100-fold reduction of the amount of Dane particles extruded into the culture medium and a similar decrease in the intracellular replicative intermediates.

| SMILES | IC50 [1] [µM] | inhibition of human hepatitis B virus [2] |
| --- | --- | --- |
| [N-]=[N+]=N[C@H]1C[C@H](n2cnc3c(OCc4ccccc4)nc(N)nc32)O[C@@H]1CO [Example 6b, 2-Amino-9-(3-azido-2,3-dideoxy-β-D-erythro-pentofuranosyl)-6-benzyloxy-9H-purine] | 8.9 |  |
| CN(C)c1nc(N)nc2c1ncn2[C@H]1C[C@H](N=[N+]=[N-])[C@@H](CO)O1 [Example 7b, 2-Amino-9-(3-azido-2,3-dideoxy-β-D-erythro-pentofuranosyl)-6-dimethylamino-9H-purine] |  | strong inhibition |
